Test systems include NCI/ADR-RES ovarian; OVCAR-5 ovarian; HOP-92 NSCLC; SF-539 CNS; SK-OV-3 ovarian; HOP-62 NSCLC; M14 melanoma; RPMI-8226 leukemia; RXF 393 renal; SF-268 CNS; IGROV1 ovarian.
Common to all, as to experiment: NCI anticancer screen, dose series, 48 h

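Protocol summary: plate cells (96-well), add compound at 5 concentrations, incubate 48 h, interpolate endpoints linearly. At the GI50, growth is halved. Definition used: TGI = concentration required for complete inhibition of growth.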

On to `Clc1ccc2c(NCCNc3nc(-c4ccccc4)cc(-c4ccccc4)n3)ccnc2c1`, for which the GI50 was 1.77 µM in the experiment on NCI/ADR-RES ovarian; 1.68 µM with OVCAR-5 ovarian; 1.61 µM with HOP-92 NSCLC; 1.79 µM with SF-539 CNS; 1.75 µM in the experiment with SK-OV-3 ovarian; 1.61 µM in the experiment with HOP-62 NSCLC. Besides, the GI50 with M14 melanoma is 1.71 µM; in the experiment with RPMI-8226 leukemia, 2.19 µM. In addition, the TGI is 3.6 µM in the experiment on NCI/ADR-RES ovarian; 3.17 µM in the experiment on OVCAR-5 ovarian; 3.14 µM in the experiment on HOP-92 NSCLC; 3.35 µM in the experiment with SF-539 CNS; 3.33 µM with SK-OV-3 ovarian; 3.05 µM in the experiment with HOP-62 NSCLC. Also, the TGI was found to be 3.16 µM with M14 melanoma and 5.1 µM in the experiment on RPMI-8226 leukemia.

Take `Nc1nc(=O)n(C2OC(CO)C(O)C2O)cc1F` (stereo unspecified): the TGI in the experiment with NCI/ADR-RES ovarian was above 100 µM; in the experiment on OVCAR-5 ovarian, above 81.3 µM; in the experiment on HOP-92 NSCLC, 5.9 µM; in the experiment on SF-539 CNS, above 100 µM; in the experiment with RXF 393 renal, above 100 µM; in the experiment with SF-268 CNS it was above 100 µM. For the same compound, the TGI in the experiment with SK-OV-3 ovarian is above 100 µM; in the experiment on HOP-62 NSCLC, 0.175 µM; in the experiment with RPMI-8226 leukemia, above 100 µM; with IGROV1 ovarian it was above 100 µM.

With `c1ccc2cc3n[se]nc3cc2c1`, the TGI in the experiment on OVCAR-5 ovarian, in the experiment with SF-539 CNS, in the experiment with RXF 393 renal, in the experiment with SF-268 CNS, with SK-OV-3 ovarian and in the experiment with M14 melanoma was above 100 µM in each case. The TGI in the experiment on RPMI-8226 leukemia and in the experiment with IGROV1 ovarian was above 100 µM each time.

For `O=C(O)/C(=C\c1ccccc1)Cc1ccccc1`, the TGI with NCI/ADR-RES ovarian, with OVCAR-5 ovarian, with HOP-92 NSCLC, in the experiment on SF-539 CNS, in the experiment with RXF 393 renal and with SF-268 CNS was above 100 µM throughout. In addition, the TGI in the experiment with SK-OV-3 ovarian, in the experiment with HOP-62 NSCLC, in the experiment on M14 melanoma, with RPMI-8226 leukemia and in the experiment on IGROV1 ovarian was above 100 µM each time.

As for `COc1cc2cc(C(=O)N3CC(COS(C)(=O)=O)c4c3cc([N+](=O)[O-])c3ccccc43)[nH]c2c(OC)c1OC` (stereo unspecified), the TGI in the experiment with NCI/ADR-RES ovarian was above 31.6 µM; in the experiment with OVCAR-5 ovarian, above 31.6 µM; with HOP-92 NSCLC it was above 31.6 µM; in the experiment on SF-539 CNS, above 31.6 µM; with RXF 393 renal it was above 100 µM; in the experiment with SF-268 CNS, above 31.6 µM. In addition, the TGI in the experiment on SK-OV-3 ovarian was above 100 µM; in the experiment with HOP-62 NSCLC, above 31.6 µM; in the experiment on M14 melanoma, above 31.6 µM; in the experiment with RPMI-8226 leukemia, above 31.6 µM; in the experiment on IGROV1 ovarian it was above 31.6 µM.

Source of the values: PubChem BioAssay (NCI).
